The values that follow come from ChEMBL document CHEMBL1150375, “Novel inhibitors of the v-raf murine sarcoma viral oncogene homologue B1 (BRAF) based on a 2,6-disubstituted pyrazine scaffold” (J Med Chem, 2008).

For experiment [1], the target named is Serine/threonine-protein kinase B-raf (Homo sapiens, UniProt P15056, V600E).
Description: Inhibition of human BRAF V600E mutant expressed in SF9 cells
Experiment [2] addresses RAF proto-oncogene serine/threonine-protein kinase (Homo sapiens, UniProt P04049). As to the kind of experiment: Inhibition of CRAF.
Experiment [3] in a line: Selectivity ratio of IC50 for CRAF to IC50 for human BRAF V600E mutant.

In general, IC50 refers to the concentration that inhibits the measured activity by half.

Where only a bound is given, the exact number is not on record here.

RAF proto-oncogene serine/threonine-protein kinase, sequence (P04049 whole entry): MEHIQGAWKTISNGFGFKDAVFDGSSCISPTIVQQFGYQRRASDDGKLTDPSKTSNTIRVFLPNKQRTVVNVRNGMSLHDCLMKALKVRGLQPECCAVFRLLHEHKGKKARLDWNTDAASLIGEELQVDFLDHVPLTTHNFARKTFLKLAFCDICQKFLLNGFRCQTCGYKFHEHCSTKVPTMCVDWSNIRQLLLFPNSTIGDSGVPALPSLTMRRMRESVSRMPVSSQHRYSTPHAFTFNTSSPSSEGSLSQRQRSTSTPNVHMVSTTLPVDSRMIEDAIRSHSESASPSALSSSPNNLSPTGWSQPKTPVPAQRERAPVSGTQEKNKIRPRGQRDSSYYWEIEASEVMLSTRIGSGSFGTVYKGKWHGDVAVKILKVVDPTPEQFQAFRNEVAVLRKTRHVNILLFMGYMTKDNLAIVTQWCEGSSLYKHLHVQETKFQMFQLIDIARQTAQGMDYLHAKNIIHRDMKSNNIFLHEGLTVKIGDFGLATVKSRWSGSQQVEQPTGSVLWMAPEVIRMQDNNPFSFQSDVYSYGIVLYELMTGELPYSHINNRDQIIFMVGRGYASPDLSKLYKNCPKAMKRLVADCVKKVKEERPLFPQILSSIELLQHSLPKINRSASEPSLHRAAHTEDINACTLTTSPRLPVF
Serine/threonine-protein kinase B-raf, sequence (P15056 2-766 V600E limits assumed): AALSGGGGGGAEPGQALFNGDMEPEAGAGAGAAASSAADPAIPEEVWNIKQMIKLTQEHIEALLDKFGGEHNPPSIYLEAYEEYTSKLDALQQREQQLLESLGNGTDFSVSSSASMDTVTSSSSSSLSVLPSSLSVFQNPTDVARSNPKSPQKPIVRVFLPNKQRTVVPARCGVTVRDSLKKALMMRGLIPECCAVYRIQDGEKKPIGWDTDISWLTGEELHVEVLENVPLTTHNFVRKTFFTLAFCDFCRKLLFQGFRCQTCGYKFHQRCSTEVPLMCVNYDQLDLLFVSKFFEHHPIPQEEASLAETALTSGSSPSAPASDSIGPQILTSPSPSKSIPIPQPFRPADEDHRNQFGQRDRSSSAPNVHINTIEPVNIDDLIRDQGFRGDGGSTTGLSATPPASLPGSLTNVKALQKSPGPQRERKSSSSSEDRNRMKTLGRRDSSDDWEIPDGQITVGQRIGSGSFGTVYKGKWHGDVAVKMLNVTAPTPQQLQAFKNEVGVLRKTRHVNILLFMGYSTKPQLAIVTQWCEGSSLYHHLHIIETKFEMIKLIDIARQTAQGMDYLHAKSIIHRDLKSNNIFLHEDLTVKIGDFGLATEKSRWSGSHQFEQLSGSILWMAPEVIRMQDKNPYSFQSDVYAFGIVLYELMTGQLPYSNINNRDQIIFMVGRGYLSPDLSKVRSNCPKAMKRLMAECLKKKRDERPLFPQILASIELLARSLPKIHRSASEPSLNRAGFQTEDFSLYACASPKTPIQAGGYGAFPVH

`COc1cc(Nc2cncc(-c3cccnc3)n2)cc(OC)c1OC`: inhibition in experiment [1] was half-maximal at 22 µM (IC50). Still for that read-out and setting: in the case of `COc1cc(Nc2cncc(Nc3cccc(F)c3)n2)cc(OC)c1OC` it was 12 µM; in that of `COc1cc(Nc2cncc(Oc3ccccc3F)n2)cc(OC)c1OC`, 45 µM; in that of `COc1cc(Nc2cncc(Oc3cccc4cnccc34)n2)cc(OC)c1OC`, 3.8 µM. `CC(=O)Nc1cccc2c(Oc3cncc(Nc4cccc(-c5cnco5)c4)n3)cccc12`: the figures for the IC50 in experiment [2] and in experiment [1] were 6.96 µM and 0.65 µM, respectively. Moreover, in experiment [3], the Ratio IC50 came out at 11.

In turn, `COc1cc(Nc2cncc(Oc3cccnc3)n2)cc(OC)c1OC` came in with an IC50 in experiment [1] of 45 µM. The compound `COc1cc(Nc2cncc(Oc3cccc4c(NC(C)=O)cccc34)n2)cc(OC)c1OC` returned an IC50 in experiment [1] of 0.41 µM. On the same count and under the same terms, in the case of `COc1cc(Nc2cncc(Oc3ccc4c(c3)C(=O)CC4)n2)cc(OC)c1OC` it was 22 µM; in that of `COc1cc(Nc2cncc(Nc3ccc(NC(C)=O)cc3)n2)cc(OC)c1OC`, 16 µM.

Take `COc1cc(Nc2cncc(Oc3cccc(C(C)=O)c3)n2)cc(OC)c1OC`: the midpoint of inhibition in experiment [1], the IC50, lay at 19 µM.

With `COc1cc(Nc2cncc(-c3ccc(CO)cc3)n2)cc(OC)c1OC`, in experiment [1], the IC50 was determined as 26 µM.

Compound `COc1cc(Nc2cncc(Oc3ccc4c(c3)CCCC4=O)n2)cc(OC)c1OC` gave an IC50 in experiment [1] of 76 µM. `COc1cc(Nc2cncc(-c3cccc(O)c3)n2)cc(OC)c1OC` showed an IC50 in experiment [1] of 4 µM. Consider `COc1cc(Nc2cncc(Oc3ccc4c(c3)OC(=O)CC4)n2)cc(OC)c1OC`, for which the IC50 in experiment [1] turned out to be 44 µM. In experiment [1], `COc1cc(Nc2cncc(Oc3ccc(NC(C)=O)cc3)n2)cc(OC)c1OC` showed an IC50 of 5.5 µM. Take `COc1cc(Nc2cncc(Oc3ccc4c(c3)CCC/C4=N\O)n2)cc(OC)c1OC`: the midpoint of inhibition in experiment [1], the IC50, lay at 92 µM. `COc1cc(Nc2cncc(Oc3ccc(C(C)=O)cc3)n2)cc(OC)c1OC` showed an IC50 in experiment [1] of 34 µM. Same read-out and setting: in the case of `COc1cc(Nc2cncc(Oc3cccc4ncccc34)n2)cc(OC)c1OC` it was 10 µM; in that of `COc1cc(Nc2cncc(Nc3ccccc3)n2)cc(OC)c1OC`, 16 µM; in that of `COc1cc(Nc2cncc(-c3ccc(C=O)cc3)n2)cc(OC)c1OC`, 3 µM.

Take `COc1cc(Nc2cncc(Nc3cccc(NC(C)=O)c3)n2)cc(OC)c1OC`: the IC50 in experiment [1] turned out to be 14 µM. `COc1cc(Nc2cncc(Nc3ccncc3)n2)cc(OC)c1OC` registered an IC50 in experiment [1] of 4.7 µM. On the same count and under the same terms, in the case of `COc1cc(Nc2cncc(-c3cccc(C#N)c3)n2)cc(OC)c1OC` it was 9.8 µM; in that of `COc1cc(Nc2cncc(-c3cccc(NC(C)=O)c3)n2)cc(OC)c1OC`, 3.5 µM; in that of `COc1cc(Nc2cncc(Nc3ccc(O)cc3)n2)cc(OC)c1OC`, 4.9 µM. `COc1cc(Nc2cncc(Oc3cccc4c3CC/C4=N\O)n2)cc(OC)c1OC` came in with an IC50 in experiment [1] of 1.4 µM. Regarding `COc1cc(Nc2nc(-c3cccc(NC(C)=O)c3)cnc2NC(C)=O)cc(OC)c1OC`, the IC50 in experiment [1] was > 100 µM. In turn, `COc1cc(Nc2cncc(Oc3cccc(NC(C)=O)c3)n2)cc(OC)c1OC` showed an IC50 in experiment [1] of 13 µM. In the case of `COc1cc(Nc2cncc(Oc3cccc4c3CCC4=O)n2)cc(OC)c1OC`, in experiment [1], the half-maximal inhibitory concentration (IC50) turned out to be 18 µM.

For `COc1cc(Nc2cncc(-c3ccc(C(N)=O)cc3)n2)cc(OC)c1OC`, the IC50 in experiment [2] is 38.2 µM; in experiment [1] it was 1.12 µM. For the same compound, the Ratio IC50 in experiment [3] is 34. As for `COc1cc(Nc2cncc(Oc3ccc(NC(C)=O)c4ccccc34)n2)cc(OC)c1OC`, the figures for the IC50 in experiment [2] and in experiment [1] were 20.3 µM and 0.56 µM, respectively. Also, the Ratio IC50 in experiment [3] was determined as 36. Turning to `COc1cc(Nc2cncc(Oc3cccc4c3CCCC4)n2)cc(OC)c1OC`, in experiment [1], inhibition was half-maximal at 18 µM (IC50). Turning to `COc1cc(Nc2cncc(Oc3ccc4ccccc4c3)n2)cc(OC)c1OC`, the IC50 in experiment [1] was > 100 µM. On to `COc1cc(Nc2cncc(-c3ccc(NC(=O)Nc4ccccc4)cc3)n2)cc(OC)c1OC`, for which the IC50 was > 100 µM in experiment [2] and 1.16 µM in experiment [1]. Moreover, the Ratio IC50 in experiment [3] is > 86.

As for `COc1cc(Nc2cncc(Oc3cccc4[nH]ccc34)n2)cc(OC)c1OC`, in experiment [1], the IC50 is 7.4 µM. On the same count and under the same terms, in the case of `COc1cc(Nc2cncc(Nc3ccc(F)cc3)n2)cc(OC)c1OC` it was 19 µM; in that of `COc1cc(Nc2cncc(Oc3cccc(/C(C)=N/O)c3)n2)cc(OC)c1OC`, 11 µM. For `COc1cc(Nc2cncc(Oc3cccc4ccccc34)n2)cc(OC)c1OC`, the IC50 in experiment [1] came to 1.2 µM. In the case of `COc1cc(Nc2cncc(Oc3ccc4ncccc4c3)n2)cc(OC)c1OC`, the IC50 in experiment [1] was determined as 29 µM. Still for that read-out and setting: to `COc1cc(Nc2cncc(-c3cccc(NC(C)=O)c3)c2)cc(OC)c1OC` belongs 26 µM. Take `CC(=O)Nc1ccc(Oc2cncc(Nc3cccc(-c4cnco4)c3)n2)c2ccccc12`: the IC50 in experiment [2] amounted to 1.52 µM; in experiment [1], 0.31 µM. Moreover, the Ratio IC50 in experiment [3] amounted to 5.

`CC(=O)Nc1cccc2c(Oc3cncc(Nc4ccc5c(c4)C(=O)OC5)n3)cccc12`: the IC50 in experiment [1] is 2.5 µM. With `COc1cc(Nc2cncc(Sc3cccc4ccccc34)n2)cc(OC)c1OC`, the IC50 in experiment [1] turned out to be 9.8 µM. The same measure, in the same setting: in the case of `CCOC(=O)c1cccc(-c2cncc(Nc3cc(OC)c(OC)c(OC)c3)n2)c1` it was 14 µM; in that of `COc1cc(Nc2cncc(Oc3ccncc3)n2)cc(OC)c1OC`, 16 µM. For `COc1cc(Nc2cncc(-c3ccncc3)n2)cc(OC)c1OC`, half-maximal inhibition in experiment [1] (IC50) required 2.9 µM. In turn, `COc1cc(Nc2cncc(Oc3ccc(/C(C)=N/O)cc3)n2)cc(OC)c1OC` yielded an IC50 in experiment [1] of 26 µM. As for `COc1cc(Nc2cncc(Oc3cccc4c3CCCC4=O)n2)cc(OC)c1OC`, it took 29 µM to reach half-maximal inhibition in experiment [1] (IC50). In the case of `COc1cc(Nc2cncc(Oc3ccc4c(c3)/C(=N/O)CC4)n2)cc(OC)c1OC`, the half-inhibitory concentration (IC50) in experiment [1] came to 86 µM. Still for that read-out and setting: in the case of `COc1cc(Nc2cncc(Oc3cccc(F)c3)n2)cc(OC)c1OC` it was 56 µM; in that of `COc1cc(Nc2cncc(Oc3ccc4c(c3)CCC4=O)n2)cc(OC)c1OC`, 70 µM; in that of `COc1cc(Nc2cncc(Oc3ccnc4ccccc34)n2)cc(OC)c1OC`, 1.5 µM. `COc1cc(Nc2cncc(Oc3ccccc3)n2)cc(OC)c1OC`: in experiment [1], it took 31 µM to reach half-maximal inhibition (IC50). Compound `COc1cc(Nc2cncc(Oc3cccc(Cl)c3)n2)cc(OC)c1OC` yielded an IC50 in experiment [1] of 36 µM. Take `COc1cc(Nc2cncc(Oc3ccccc3-c3ccccc3)n2)cc(OC)c1OC`: in experiment [1], the IC50 was 10 µM. With `COc1cc(Nc2cncc(-c3ccc(O)cc3)n2)cc(OC)c1OC`, inhibition in experiment [1] was half-maximal at 18 µM (IC50).
